Assays:
Experiment in all cases: relative viability (nuclei count vs DMSO), 5 days (fraction); higher = more cells survive
NCI-H1666 = system: NCI-H1666
Procedure, shortened: (§1)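 Values are medians from duplicate plates. Each reflects relative viability, defined as the nuclei count of treated wells over that of vehicle wells. Lung cancer cell lines in 1536-well plates were pin-tool dosed one day after seeding with one drug alone or with a fixed anchor-drug dose plus five library-drug doses (not always all listed) in √10 steps, then fixed, stained and imaged at 4× after 5 days.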

NCI-H1755 = system: NCI-H1755
Procedure, shortened: as §1

NCI-H520 = system: NCI-H520
Procedure, shortened: as §1

NCI-H322M = system: NCI-H322M
Procedure, shortened: as §1

NCI-H2347 = system: NCI-H2347
Procedure, shortened: as §1

SK-LU-1 = system: SK-LU-1
Procedure, shortened: as §1

NCI-H1395 = system: NCI-H1395
Procedure, shortened: as §1

HCC-827 = system: HCC-827
Procedure, shortened: as §1

CAL-12T = system: CAL-12T
Procedure, shortened: as §1

HCC-44 = system: HCC-44
Procedure, shortened: as §1

RERF-LC-KJ = system: RERF-LC-KJ
Procedure, shortened: as §1

NCI-H1793 = system: NCI-H1793
Procedure, shortened: as §1

ABC-1 = system: ABC-1
Procedure, shortened: as §1

NCI-H2126 = system: NCI-H2126
Procedure, shortened: as §1

ChaGo-K-1 = system: ChaGo-K-1
Procedure, shortened: as §1

NCI-H3122 = system: NCI-H3122
Procedure, shortened: as §1

NCI-H358 = system: NCI-H358
Procedure, shortened: as §1

LU99A = system: LU99A
Procedure, shortened: as §1

NCI-H1944 = system: NCI-H1944
Procedure, shortened: as §1

LCLC-103H = system: LCLC-103H
Procedure, shortened: as §1

LXF-289 = system: LXF-289
Procedure, shortened: as §1

CN1CCN(CCOc2cc(OC3CCOCC3)c3c(Nc4c(Cl)ccc5c4OCO5)ncnc3c2)CC1 [Saracatinib] + Cc1cc(Nc2cc(N3CCN(C)CC3)nc(Sc3ccc(NC(=O)C4CC4)cc3)n2)n[nH]1 [Tozasertib] (partner 0.1 µM)
relative viability (NCI-H1666; first compound 0.02 µM): 0.648 | relative viability (NCI-H1666; first compound 0.2 µM): 0.607 | relative viability (NCI-H1666; first compound 0.6325 µM): 0.66 | relative viability (NCI-H1666; first compound 2 µM): 0.625 | relative viability (NCI-H1755; first compound 0.02 µM): 0.526 | relative viability (NCI-H1755; first compound 0.2 µM): 0.528 | relative viability (NCI-H1755; first compound 0.6325 µM): 0.644 | relative viability (NCI-H1755; first compound 2 µM): 0.459 | relative viability (NCI-H520; first compound 0.02 µM): 0.407 | relative viability (NCI-H520; first compound 0.6325 µM): 0.383 | relative viability (NCI-H520; first compound 2 µM): 0.314 | relative viability (NCI-H322M; first compound 0.02 µM): 0.501 | relative viability (NCI-H322M; first compound 0.2 µM): 0.313 | relative viability (NCI-H322M; first compound 0.6325 µM): 0.439 | relative viability (NCI-H322M; first compound 2 µM): 0.255 | relative viability (NCI-H2347; first compound 0.02 µM): 0.514 | relative viability (NCI-H2347; first compound 0.2 µM): 0.517 | relative viability (NCI-H2347; first compound 0.6325 µM): 0.539 | relative viability (NCI-H2347; first compound 2 µM): 0.518 | relative viability (SK-LU-1; first compound 0.02 µM): 0.354 | relative viability (SK-LU-1; first compound 0.2 µM): 0.231 | relative viability (SK-LU-1; first compound 0.6325 µM): 0.172 | relative viability (SK-LU-1; first compound 2 µM): 0.132 | relative viability (NCI-H1395; first compound 0.02 µM): 0.722 | relative viability (NCI-H1395; first compound 0.2 µM): 0.763 | relative viability (NCI-H1395; first compound 0.6325 µM): 0.83 | relative viability (NCI-H1395; first compound 2 µM): 0.619 | relative viability (HCC-827; first compound 0.02 µM): 0.404 | relative viability (HCC-827; first compound 0.2 µM): 0.311 | relative viability (HCC-827; first compound 0.6325 µM): 0.171 | relative viability (HCC-827; first compound 2 µM): 0.11 | relative viability (CAL-12T; first compound 0.02 µM): 0.361 | relative viability (CAL-12T; first compound 0.2 µM): 0.387 | relative viability (CAL-12T; first compound 0.6325 µM): 0.283 | relative viability (CAL-12T; first compound 2 µM): 0.194 | relative viability (HCC-44; first compound 0.02 µM): 0.967 | relative viability (HCC-44; first compound 0.2 µM): 0.891 | relative viability (HCC-44; first compound 0.6325 µM): 1.48 | relative viability (HCC-44; first compound 2 µM): 1.05 | relative viability (RERF-LC-KJ; first compound 0.02 µM): 0.52 | relative viability (RERF-LC-KJ; first compound 0.2 µM): 0.465 | relative viability (RERF-LC-KJ; first compound 0.6325 µM): 0.497 | relative viability (RERF-LC-KJ; first compound 2 µM): 0.363 | relative viability (NCI-H1793; first compound 0.02 µM): 0.318 | relative viability (NCI-H1793; first compound 0.6325 µM): 0.209 | relative viability (NCI-H1793; first compound 2 µM): 0.142 | relative viability (ABC-1; first compound 0.02 µM): 0.157 | relative viability (ABC-1; first compound 0.2 µM): 0.164 | relative viability (ABC-1; first compound 0.6325 µM): 0.169 | relative viability (ABC-1; first compound 2 µM): 0.14 | relative viability (NCI-H2126; first compound 0.02 µM): 0.819 | relative viability (NCI-H2126; first compound 0.2 µM): 0.846 | relative viability (NCI-H2126; first compound 0.6325 µM): 0.815 | relative viability (NCI-H2126; first compound 2 µM): 0.648 | relative viability (ChaGo-K-1; first compound 0.02 µM): 0.24 | relative viability (ChaGo-K-1; first compound 0.2 µM): 0.233 | relative viability (ChaGo-K-1; first compound 0.6325 µM): 0.218 | relative viability (ChaGo-K-1; first compound 2 µM): 0.198 | relative viability (NCI-H3122; first compound 0.02 µM): 0.569 | relative viability (NCI-H3122; first compound 0.2 µM): 0.358 | relative viability (NCI-H3122; first compound 0.6325 µM): 0.384 | relative viability (NCI-H3122; first compound 2 µM): 0.298 | relative viability (NCI-H358; first compound 0.02 µM): 0.118 | relative viability (NCI-H358; first compound 0.2 µM): 0.0883 | relative viability (NCI-H358; first compound 0.6325 µM): 0.0859 | relative viability (NCI-H358; first compound 2 µM): 0.0757 | relative viability (LU99A; first compound 0.02 µM): 0.26 | relative viability (LU99A; first compound 0.2 µM): 0.249 | relative viability (LU99A; first compound 0.6325 µM): 0.226 | relative viability (LU99A; first compound 2 µM): 0.217 | relative viability (NCI-H1944; first compound 0.02 µM): 0.23 | relative viability (NCI-H1944; first compound 0.6325 µM): 0.227 | relative viability (NCI-H1944; first compound 2 µM): 0.169 | relative viability (LCLC-103H; first compound 0.02 µM): 0.46 | relative viability (LCLC-103H; first compound 0.2 µM): 0.465 | relative viability (LCLC-103H; first compound 0.6325 µM): 0.465 | relative viability (LCLC-103H; first compound 2 µM): 0.454 | relative viability (LXF-289; first compound 0.02 µM): 0.205 | relative viability (LXF-289; first compound 0.2 µM): 0.183 | relative viability (LXF-289; first compound 0.6325 µM): 0.164 | relative viability (LXF-289; first compound 2 µM): 0.0819
